Measurements published in patent US12577226B2, “Compounds for treating Huntington's disease” (PTC THERAPEUTICS, INC., priority 2019, dated 2026).
pIC50: −log10 of the molar value.

Test system: Endogenous Huntingtin Protein (capture with MW1 (expanded polyglutamine) or MAB2166 antibody)
Test: Endogenous Huntingtin Protein Assay (ELISA-based Meso Scale Discovery electrochemiluminescence assay)
Format: cell-based
Conditions: MSD electrochemiluminescence platform
Method: Compounds of Formula (I), Formula (II), or Formula (III) were tested using the Meso Scale Discovery (MSD) Assay provided in International Application No. PCT/US2016/066042, filed on Dec. 11, 2016 and claiming priority to U.S. Provisional Application U.S. 62/265,652 filed on Dec. 10, 2015, the entire contents of which are incorporated herein by reference.
The Endogenous Huntingtin Protein assay used in Example 1 was developed using the ELISA-based MSD electrochemiluminescence assay platform.
Meso Scale Discovery (MSD) 96-well or 384-well plates were coated overnight at 4° C. with MW1 (expanded polyglutamine) or MAB2166 monoclonal antibody (for capture) at a concentration of 1 μg/mL in PBS (30 μL per well). Plates were then washed three times with 300 μL wash buffer (0.05% Tween-20 in PBS) and blocked (100 μL blocking buffer; 5% BSA in PBS) for 4-5 hours at room temperature with rotational shaking and then washed three times with wash buffer.
Samples (25 μL) were transferred to the antibody-coated MSD plate and incubated overnight at 4° C. After removal of the lysates, the plate was washed three times with wash buffer, and 25 μL of #5656S (Cell signaling; rabbit monoclonal) secondary antibody (diluted to 0.25 μg/mL in 0.05% Tween-20 in blocking buffer) was added to each well and incubated with shaking for 1 Hour at room temperature. Following incubation with the secondary antibody, the wells were rinsed with wash buffer after which 25 μL of goat anti-rabbit SULFO TAG secondary detection antibody (required aspect of the MSD system) (diluted to 0.25 μg/mL in 0.05% Tween-20 in blocking buffer) was added to each well and incubated with shaking for 1 hour at room temperature. After rinsing three times with wash buffer, 150 μL of read buffer T with surfactant (MSD) were added to each empty well, and the plate was imaged on a SI 6000 imager (MSD) according to manufacturers' instructions provided for 96- or 384-well plates.

pIC50 | Compound
6.00 to 6.30 | CC1CN(c2ccc(-c3ncc(NCc4ccncc4)cc3O)nn2)CCN1 (stereo not drawn) [Compound 111, 2-[6-(3-methylpiperazin-1-yl)pyridazin-3-yl]-5-{[(pyridin-4-yl)methyl]amino}pyridin-3-ol]
≥ 7.00 | Cn1cc2cc(-c3cnc(-c4ccc(N5CC6CC5CN6)nn4)c(O)c3)cc(F)c2n1 (stereo not drawn) [Compound 105, 2-[6-(2,5-diazabicyclo[2.2.1]heptan-2-yl)pyridazin-3-yl]-5-(7-fluoro-2-methyl-2H-indazol-5-yl)pyridin-3-ol]
≥ 7.00 | CC1(C)C[C@H](Oc2ccc(-c3ncc(-c4cn[nH]c4)cc3O)nn2)[C@H](F)C(C)(C)N1 (single isomer, unassigned) [Compound 51, 2-(6-{[(3R,4S)-3-fluoro-2,2,6,6-tetramethylpiperidin-4-yl]oxy}pyridazin-3-yl)-5-(1H-pyrazol-4-yl)pyridin-3-ol or 2-(6-{[(3S,4R)-3-fluoro-2,2,6,6-tetramethylpiperidin-4-yl]oxy}pyridazin-3-yl)-5-(1H-pyrazol-4-yl)pyridin-3-ol]
≥ 7.00 | CCC1CN(c2ccc(-c3ncc(-c4cc(F)c5nn(C)cc5c4)cc3O)nn2)CCN1 (stereo not drawn) [Compound 120, 2-[6-(3-ethylpiperazin-1-yl)pyridazin-3-yl]-5-(7-fluoro-2-methyl-2H-indazol-5-yl)pyridin-3-ol]
≥ 7.00 | CC1(C)CC(Oc2ccc(-c3ncc(-c4ccc5nccn5n4)cc3O)nn2)CC(C)(C)N1 [Compound 65, 5-(imidazo[1,2-b]pyridazin-6-yl)-2-{6-[(2,2,6,6-tetramethylpiperidin-4-yl)oxy]pyridazin-3-yl}pyridin-3-ol]
≥ 7.00 | CN1CCN(c2ccc(-c3ncc(-c4cc(F)c5nn(C)cc5c4)cc3O)nn2)CC1 [Compound 101, 5-(7-fluoro-2-methyl-2H-indazol-5-yl)-2-[6-(4-methylpiperazin-1-yl)pyridazin-3-yl]pyridin-3-ol]
6.00 to 6.30 | CC1CN(c2ccc(-c3ncc(NCc4cnc5ccccc5c4)cc3O)nn2)CCN1 (stereo not drawn) [Compound 112, 2-[6-(3-methylpiperazin-1-yl)pyridazin-3-yl]-5-{[(quinolin-3-yl)methyl]amino}pyridin-3-ol]
≥ 7.00 | Cn1cc2cc(-c3cnc(-c4ccc(N5CC(C)(C)NC(C)(C)C5)nn4)c(O)c3)cc(F)c2n1 [Compound 89, 5-(7-fluoro-2-methyl-2H-indazol-5-yl)-2-[6-(3,3,5,5-tetramethylpiperazin-1-yl)pyridazin-3-yl]pyridin-3-ol]
6.30 to 7.00 | COc1cc(-c2cnc(-c3ccc(N4C[C@@H](C)N[C@@H](C)C4)nn3)c(O)c2)ccn1 [Compound 96, 6-{6-[(3R,5S)-3,5-dimethylpiperazin-1-yl]pyridazin-3-yl}-2′-methoxy[3,4′-bipyridin]-5-ol and 6-{6-[(3S,5R)-3,5-dimethylpiperazin-1-yl]pyridazin-3-yl}-2′-methoxy[3,4′-bipyridin]-5-ol]
≥ 7.00 | Cn1cc2cc(-c3cnc(-c4ccc(N5CCNCC5)nn4)c(O)c3)cc(F)c2n1 [Compound 93, 5-(7-fluoro-2-methyl-2H-indazol-5-yl)-2-[6-(piperazin-1-yl)pyridazin-3-yl]pyridin-3-ol]
≥ 7.00 | Cc1cn2nc(-c3cnc(-c4ccc(O[C@@H]5CC(C)(C)NC(C)(C)[C@@H]5F)nn4)c(O)c3)cc(C#N)c2n1.Cc1cn2nc(-c3cnc(-c4ccc(O[C@H]5CC(C)(C)NC(C)(C)[C@H]5F)nn4)c(O)c3)cc(C#N)c2n1 (mixture of isomers) [Compound 68, 6-[6-(6-{[(3R,4S)-3-fluoro-2,2,6,6-tetramethylpiperidin-4-yl]oxy}pyridazin-3-yl)-5-hydroxypyridin-3-yl]-2-methylimidazo[1,2-b]pyridazine-8-carbonitrile and 6-[6-(6-{[(3S,4R)-3-fluoro-2,2,6,6-tetramethylpiperidin-4-yl]oxy}pyridazin-3-yl)-5-hydroxypyridin-3-yl]-2-methylimidazo[1,2-b]pyridazine-8-carbonitrile]
≥ 7.00 | CC1(C)CC(Oc2ccc(-c3ncc(-n4cncn4)cc3O)nn2)CC(C)(C)N1 [Compound 61, 2-{6-[(2,2,6,6-tetramethylpiperidin-4-yl)oxy]pyridazin-3-yl}-5-(1H-1,2,4-triazol-1-yl)pyridin-3-ol]
≥ 7.00 | Cn1cc2cc(-c3cnc(-c4ccc(OC5CC(C)(C)NC(C)(C)C5)nn4)c(O)c3)cc(C#N)c2n1 [Compound 62, 5-[6-(6-{[2,2,6,6-tetramethylpiperidin-4-yl]oxy}pyridazin-3-yl)-5-hydroxypyridin-3-yl]-2-methyl-2H-indazole-7-carbonitrile]
6.30 to 7.00 | Cc1nc2ccc(-c3cnc(-c4ccc(N5C[C@@H](C)N[C@@H](C)C5)nn4)c(O)c3)cn2n1 [Compound 99, 2-{6-[(3R,5S)-3,5-dimethylpiperazin-1-yl]pyridazin-3-yl}-5-(2-methyl[1,2,4]triazolo[1,5-a]pyridin-6-yl)pyridin-3-ol and 2-{6-[(3S,5R)-3,5-dimethylpiperazin-1-yl]pyridazin-3-yl}-5-(2-methyl[1,2,4]triazolo[1,5-a]pyridin-6-yl)pyridin-3-ol]

Second part, the compound before the results:

Compound | pIC50
C[C@@H]1CN(c2ccc(-c3ncc(-c4cn[nH]c4)cc3O)nn2)C[C@H](C)N1 [Compound 86, 2-{6-[(3R,5S)-3,5-dimethylpiperazin-1-yl]pyridazin-3-yl}-5-(1H-pyrazol-4-yl)pyridin-3-ol and 2-{6-[(3S,5R)-3,5-dimethylpiperazin-1-yl]pyridazin-3-yl}-5-(1H-pyrazol-4-yl)pyridin-3-ol] | 6.30 to 7.00
CC1(C)CC(Oc2ccc(-c3ncc(-c4cn[nH]c4F)cc3O)nn2)CC2(CC2)N1 (stereo not drawn) [Compound 26, 2-{6-[(5,5-dimethyl-4-azaspiro[2.5]octan-7-yl)oxy]pyridazin-3-yl}-5-(5-fluoro-1H-pyrazol-4-yl)pyridin-3-ol] | ≥ 7.00
CN(c1ccc(-c2ncc(-c3cc(F)c4nn(C)cc4c3)cc2O)nn1)C1CC(C)(C)NC2(CC2)C1 (stereo not drawn) [Compound 64, 2-{6-[(5,5-dimethyl-4-azaspiro[2.5]octan-7-yl)(methyl)amino]pyridazin-3-yl}-5-(7-fluoro-2-methyl-2H-indazol-5-yl)pyridin-3-ol] | ≥ 7.00
Oc1cc(-c2cn[nH]c2)cnc1-c1ccc(OC2CC3(CC3)NC3(CC3)C2)nn1 (stereo not drawn) [Compound 31, 2-{6-[(4-azadispiro[2.1.2^5.3^3]decan-9-yl)oxy]pyridazin-3-yl}-5-(1H-pyrazol-4-yl)pyridin-3-ol] | 6.30 to 7.00
CC1(C)CC(Oc2ccc(-c3ncc(-c4ncco4)cc3O)nn2)CC2(CC2)N1 (stereo not drawn) [Compound 28, 2-{6-[(5,5-dimethyl-4-azaspiro[2.5]octan-7-yl)oxy]pyridazin-3-yl}-5-(1,3-oxazol-2-yl)pyridin-3-ol] | ≥ 7.00
C[C@]12CC[C@](C)(C[C@@H](Oc3ccc(-c4ncc(-n5nccn5)cc4O)nn3)C1)N2 [Compound 32, 2-(6-{[(1R,3s,5S)-1,5-dimethyl-8-azabicyclo[3.2.1]octan-3-yl]oxy}pyridazin-3-yl)-5-(2H-1,2,3-triazol-2-yl)pyridin-3-ol and 2-(6-{[(1S,3r,5R)-1,5-dimethyl-8-azabicyclo[3.2.1]octan-3-yl]oxy}pyridazin-3-yl)-5-(2H-1,2,3-triazol-2-yl)pyridin-3-ol] | ≥ 7.00
CC1(C)CC(Oc2ccc(-c3ncc(-c4cn[nH]c4)cc3O)nn2)CC(C)(C)N1 [Compound 1, 5-(1H-pyrazol-4-yl)-2-{6-[(2,2,6,6-tetramethylpiperidin-4-yl)oxy]pyridazin-3-yl}pyridin-3-ol] | ≥ 7.00
2-(6-{[(3R,4S)-3-fluoro-2,2,6,6-tetramethylpiperidin-4-yl]oxy}pyridazin-3-yl)-5-(2-methyl[1,2,4]triazolo[1,5-a]pyridin-6-yl)pyridin-3-ol and 2-(6-{[(3S,4R)-3-fluoro-2,2,6,6-tetramethylpiperidin-4-yl]oxy}pyridazin-3-yl)-5-(2-methyl[1,2,4]triazolo[1,5-a]pyridin-6-yl)pyridin-3-ol [Compound 55] | ≥ 7.00
[2H]C([2H])([2H])n1cc(-c2cnc(-c3ccc(O[C@H]4C[C@]5(C)CC[C@](C)(C4)N5)nn3)c(O)c2)cn1 [Compound 33, 2-(6-{[(1R,3s,5S)-1,5-dimethyl-8-azabicyclo[3.2.1]octan-3-yl]oxy}pyridazin-3-yl)-5-[1-(^2H3)methyl-1H-pyrazol-4-yl]pyridin-3-ol and 2-(6-{[(1S,3r,5R)-1,5-dimethyl-8-azabicyclo[3.2.1]octan-3-yl]oxy}pyridazin-3-yl)-5-[1-(^2H3)methyl-1H-pyrazol-4-yl]pyridin-3-ol] | ≥ 7.00
CC1(C)C[C@@H](Oc2ccc(-c3ncc(-c4cn[nH]c4)cc3O)nn2)[C@@H](F)C(C)(C)N1 (single isomer, unassigned) [Compound 39, 2-(6-{[(3S,4R)-3-fluoro-2,2,6,6-tetramethylpiperidin-4-yl]oxy}pyridazin-3-yl)-5-(1H-pyrazol-4-yl)pyridin-3-ol or 2-(6-{[(3S,4R)-3-fluoro-2,2,6,6-tetramethylpiperidin-4-yl]oxy}pyridazin-3-yl)-5-(1H-pyrazol-4-yl)pyridin-3-ol] | ≥ 7.00
